In BindingDB's records for patent US11680056 (Xinthera, 2023):
Values joined by “and” are separate entries in the source; they are usually repeats but may differ in a detail not shown here. Identical values can stand only once.

target: T1, MAP kinase-activated protein kinase 2 [46-400] (Homo sapiens, UniProt P49137); test: Biochemical Assay
T1 construct: 46-400
Method: This study evaluates the inhibitory potency of invention compound on p38/MK2 pathway vs p38/PRAK pathway. More specially the compound concentration (IC50) was determined that inhibited half of the maximal activation of MK2 or PRAK by p38. MK2 activation study was set up without or with a serial of 10-point 1:3 dilution of invention compound at top dose of […], and PRAK activation study was set up without or with a serial of 10-point 1:3 dilution of invention compound at top dose of 300 μM. The MK2 and PRAK activity were determined by the phosphorylation level of HSP27 peptide conjugated with FITC. […] After 2 h incubation of the reaction mixture with various concentration of invention compound (200 nL), 60 μL 1×IMAP solution Mixture (Molecular Devices, Cat R8127) was added to the reaction mixture and incubated for another half hour. The signal was then read by Synergy Neo2 Multi-Mode Microplate Reader with filter setting (Ex/Em=485 nm/FITC FP-P pol 528 nm & FITC FP-S pol 528 nm). The signal was then normalized to vehicle control and fitted in Xfit to generate IC50. The selectivity of MK2 over PRAK was calculated by the formular Selectivity=IC50 of PRAK/IC50 of MK2.

T1 sequence (P49137 46-400): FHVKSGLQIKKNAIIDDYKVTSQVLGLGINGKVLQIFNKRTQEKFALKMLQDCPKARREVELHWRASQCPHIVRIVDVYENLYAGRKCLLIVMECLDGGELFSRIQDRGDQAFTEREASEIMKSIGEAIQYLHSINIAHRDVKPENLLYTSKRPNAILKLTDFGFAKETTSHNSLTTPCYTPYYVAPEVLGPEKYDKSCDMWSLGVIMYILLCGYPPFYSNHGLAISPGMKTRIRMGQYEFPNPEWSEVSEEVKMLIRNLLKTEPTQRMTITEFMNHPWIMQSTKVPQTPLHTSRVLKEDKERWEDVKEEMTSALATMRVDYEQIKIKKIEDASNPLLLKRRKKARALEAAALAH

Compound	IC50
Cc1cnc(-n2nc(C(C)(C)O)cc2C2CC2)cc1-n1c(C)cc(OCc2ncc(F)cc2F)c(Cl)c1=O [US11680056, Example 20A]	2000 nM and > 10000 nM
Cc1cnnc(COc2cc(C)n(-c3cc(-c4ccnc(C(C)(C)O)n4)ncc3C)c(=O)c2Cl)c1 [US11680056, Example 28A]	> 10000 nM
Cc1nn(-c2ccnc(C(C)(C)O)n2)cc1-n1c(C)cc(OCc2ncc(F)cc2F)c(Cl)c1=O [US11680056, Example 30]	631 nM
